As usually defined, the IC50 is the concentration that gives 50% inhibition.

From ChEMBL document CHEMBL1144593, “Bicyclic carbamates as inhibitors of papain-like cathepsin proteases” (Bioorg Med Chem Lett, 2007) come the findings set out here.

Activity calls are given as the source filed them. The rule behind the calls is not given here. Bounds are passed on as bounds.

One test addresses T1, Cathepsin K (Homo sapiens, UniProt P43235).
T1 sequence (P43235 whole entry): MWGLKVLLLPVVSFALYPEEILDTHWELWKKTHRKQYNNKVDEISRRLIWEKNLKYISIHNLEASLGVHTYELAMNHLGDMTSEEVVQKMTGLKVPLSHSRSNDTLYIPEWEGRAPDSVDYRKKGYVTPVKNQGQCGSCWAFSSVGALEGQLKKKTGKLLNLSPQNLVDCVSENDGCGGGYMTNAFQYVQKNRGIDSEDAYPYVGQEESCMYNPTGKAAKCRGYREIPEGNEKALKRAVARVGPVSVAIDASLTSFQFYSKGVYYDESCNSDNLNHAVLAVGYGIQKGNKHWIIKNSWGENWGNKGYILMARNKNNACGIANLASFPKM
The test can be described thus: Inhibition of human recombinant cathepsin K.

The next test has as its target Trypsin (Homo sapiens) (UniProt P07477+P07478+P35030). The test can be described thus: Inhibition of trypsin. In kind it is protein assay.
A further test concerns the target T2, Pro-cathepsin H (Homo sapiens, UniProt P09668).
T2 sequence (P09668 whole entry): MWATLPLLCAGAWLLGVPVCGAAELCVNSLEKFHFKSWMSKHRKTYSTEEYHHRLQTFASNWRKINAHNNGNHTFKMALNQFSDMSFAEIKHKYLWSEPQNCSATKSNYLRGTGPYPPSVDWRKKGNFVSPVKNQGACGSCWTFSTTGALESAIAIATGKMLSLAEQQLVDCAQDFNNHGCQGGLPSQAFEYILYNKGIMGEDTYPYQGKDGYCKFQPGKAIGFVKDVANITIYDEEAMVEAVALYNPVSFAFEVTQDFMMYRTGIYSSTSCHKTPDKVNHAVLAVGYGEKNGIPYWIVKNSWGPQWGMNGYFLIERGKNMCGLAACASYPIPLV
The test can be described thus: Inhibition of human recombinant cathepsin H.

Another test concerns the target T3, Cathepsin L2 (Homo sapiens, UniProt O60911).
T3 sequence (O60911 whole entry): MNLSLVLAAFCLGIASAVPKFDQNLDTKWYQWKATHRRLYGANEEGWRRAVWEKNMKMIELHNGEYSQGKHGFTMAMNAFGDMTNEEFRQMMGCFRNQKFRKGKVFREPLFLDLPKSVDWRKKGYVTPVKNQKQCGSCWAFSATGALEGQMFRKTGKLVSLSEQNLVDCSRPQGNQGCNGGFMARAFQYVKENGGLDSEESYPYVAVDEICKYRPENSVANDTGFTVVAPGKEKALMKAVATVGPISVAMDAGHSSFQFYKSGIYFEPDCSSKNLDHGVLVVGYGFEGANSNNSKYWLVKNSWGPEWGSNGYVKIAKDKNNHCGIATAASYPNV
In words: Inhibition of human recombinant cathepsin V.

For test [1], the target named is Prothrombin (Homo sapiens) (UniProt P00734). The test can be described thus: Inhibition of thrombin.
In another test the target is Cathepsin S (Homo sapiens, UniProt P25774). In words: Inhibition of human recombinant cathepsin S.
Sequence of Cathepsin S (P25774 whole entry): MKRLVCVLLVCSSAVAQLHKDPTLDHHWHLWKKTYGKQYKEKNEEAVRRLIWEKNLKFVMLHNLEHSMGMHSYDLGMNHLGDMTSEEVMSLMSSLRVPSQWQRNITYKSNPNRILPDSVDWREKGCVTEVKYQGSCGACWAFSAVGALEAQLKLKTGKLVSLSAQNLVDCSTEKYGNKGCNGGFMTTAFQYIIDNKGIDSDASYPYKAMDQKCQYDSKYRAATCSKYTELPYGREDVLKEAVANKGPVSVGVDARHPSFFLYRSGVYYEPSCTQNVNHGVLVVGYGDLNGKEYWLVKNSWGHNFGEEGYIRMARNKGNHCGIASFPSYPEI
A further test has as its target T4, Cathepsin F (Homo sapiens, UniProt Q9UBX1).
T4 sequence (Q9UBX1 whole entry): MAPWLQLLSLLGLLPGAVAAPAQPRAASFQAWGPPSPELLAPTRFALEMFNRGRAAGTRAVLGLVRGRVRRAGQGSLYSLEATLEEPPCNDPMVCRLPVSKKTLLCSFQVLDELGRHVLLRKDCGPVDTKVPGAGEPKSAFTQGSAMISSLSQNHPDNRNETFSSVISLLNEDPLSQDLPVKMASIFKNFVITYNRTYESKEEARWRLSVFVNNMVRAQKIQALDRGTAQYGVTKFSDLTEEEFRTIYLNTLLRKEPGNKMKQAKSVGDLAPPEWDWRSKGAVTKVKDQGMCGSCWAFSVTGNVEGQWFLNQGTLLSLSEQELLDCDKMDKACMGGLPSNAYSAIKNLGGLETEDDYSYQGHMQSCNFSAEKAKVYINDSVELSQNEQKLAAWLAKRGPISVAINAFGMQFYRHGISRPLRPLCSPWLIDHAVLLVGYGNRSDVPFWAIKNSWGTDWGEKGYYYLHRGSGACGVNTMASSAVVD
The test can be described thus: Inhibition of human recombinant cathepsin F.

In the next test the target is Dipeptidyl peptidase 1 (Homo sapiens, UniProt P53634). The test can be described thus: Inhibition of human recombinant cathepsin C.
Sequence of Dipeptidyl peptidase 1 (P53634 25-134 limits assumed): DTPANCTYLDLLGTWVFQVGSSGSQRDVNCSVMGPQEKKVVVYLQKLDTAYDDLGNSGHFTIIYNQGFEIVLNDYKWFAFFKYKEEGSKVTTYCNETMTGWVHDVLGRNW
Sequence of Dipeptidyl peptidase 1 (P53634 231-394 limits assumed): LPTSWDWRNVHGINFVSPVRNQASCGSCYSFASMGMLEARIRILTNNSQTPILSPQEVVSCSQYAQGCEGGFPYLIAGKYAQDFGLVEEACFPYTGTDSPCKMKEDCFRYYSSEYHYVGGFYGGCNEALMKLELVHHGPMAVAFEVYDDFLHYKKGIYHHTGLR
Sequence of Dipeptidyl peptidase 1 (P53634 395-463 limits assumed): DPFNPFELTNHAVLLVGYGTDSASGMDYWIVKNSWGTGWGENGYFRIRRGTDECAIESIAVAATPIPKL
The target in another test is Cathepsin B (Homo sapiens, UniProt P07858). The test can be described thus: Inhibition of human recombinant cathepsin B.
In another test the target is Procathepsin L (Homo sapiens, UniProt P07711). The test can be described thus: Inhibition of human recombinant cathepsin L.
Sequence of Procathepsin L (P07711 whole entry): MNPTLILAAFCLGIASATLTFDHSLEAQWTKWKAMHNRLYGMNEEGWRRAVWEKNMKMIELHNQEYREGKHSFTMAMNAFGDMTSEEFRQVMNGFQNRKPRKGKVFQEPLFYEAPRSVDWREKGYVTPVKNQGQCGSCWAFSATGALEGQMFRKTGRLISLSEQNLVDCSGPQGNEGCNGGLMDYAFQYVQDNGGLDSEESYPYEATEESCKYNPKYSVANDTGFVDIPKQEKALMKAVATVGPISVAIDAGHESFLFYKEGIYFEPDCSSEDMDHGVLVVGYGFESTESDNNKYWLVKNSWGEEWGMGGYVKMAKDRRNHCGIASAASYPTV

With `Cc1cccc(O[C@@H]2CCNC[C@@H]2O)c1C`, the 50% inhibitory concentration (IC50) at Cathepsin K, at Pro-cathepsin H, at Cathepsin L2, on Cathepsin S, at Cathepsin F and at Dipeptidyl peptidase 1 was above 100 µM throughout. Also, the IC50 on Cathepsin B and at Procathepsin L was above 100 µM each time. Also, the result (on Trypsin (Homo sapiens); in test [1]) was inactive.

As for `Cc1cccc(O[C@@H]2CCNC[C@H]2O)c1C`, the half-maximal inhibitory concentration (IC50) at Cathepsin K, on Pro-cathepsin H, on Cathepsin L2, at Cathepsin S, at Cathepsin F and on Dipeptidyl peptidase 1 was above 100 µM in each case. Also, the IC50 on Cathepsin B and at Procathepsin L was above 100 µM throughout. The result (at Trypsin (Homo sapiens); in test [1]) was inactive.

Regarding `O=C1O[C@H]2CN1CC[C@@H]2Br`, the concentration for half-maximal inhibition (IC50) on Cathepsin K is above 30 µM; at Pro-cathepsin H, above 100 µM; at Cathepsin L2 it was above 10 µM; on Cathepsin S, 4.55 µM; on Cathepsin F, above 10 µM; at Dipeptidyl peptidase 1, above 10 µM. For the same molecule, the concentration for half-maximal inhibition (IC50) came to 0.158 µM on Cathepsin B and 5.82 µM on Procathepsin L. In addition, the outcome (on Trypsin (Homo sapiens); in test [1]) was inactive.

With `O=C1O[C@@H]2CN1CC[C@@H]2Oc1ccccc1`, the IC50 on Cathepsin K stood at 0.104 µM; at Pro-cathepsin H, 6.59 µM; on Cathepsin L2, 0.158 µM; on Cathepsin S, 0.017 µM; on Cathepsin F, 0.487 µM; at Dipeptidyl peptidase 1, 0.029 µM. For the same molecule, the figures for the 50% inhibitory concentration (IC50) at Cathepsin B and at Procathepsin L were 0.005 µM and 0.026 µM, respectively. Also, the result (at Trypsin (Homo sapiens); in [1]) was inactive.

As for `S=C1O[C@@H]2CN1CC[C@@H]2Oc1ccccc1`, the half-inhibitory concentration (IC50) at Cathepsin K was 1.83 µM; on Pro-cathepsin H, above 100 µM; on Cathepsin L2 it was 5.17 µM; at Cathepsin S, 0.696 µM; on Cathepsin F, above 10 µM; on Dipeptidyl peptidase 1, 0.606 µM. Besides, the IC50 on Cathepsin B was determined as 0.519 µM; on Procathepsin L it was 0.994 µM. For the same molecule, the outcome (at Trypsin (Homo sapiens); in test [1]) was inactive.

With `CC(C)CO[C@H]1CCN2C[C@H]1OC2=O`, the half-inhibitory concentration (IC50) on Cathepsin K was 1.27 µM; at Pro-cathepsin H it was above 10 µM; at Cathepsin L2 it was 0.894 µM; on Cathepsin S it was 0.298 µM; on Cathepsin F, 1.83 µM; on Dipeptidyl peptidase 1, 0.191 µM. Moreover, the 50% inhibitory concentration (IC50) at Cathepsin B was 0.008 µM; at Procathepsin L it was 0.23 µM. The outcome (at Trypsin (Homo sapiens); in test [1]) was inactive.

`Cc1cccc(OCC2CN(C)C(=O)O2)c1C` (stereo not given): the IC50 at Cathepsin K, on Pro-cathepsin H, at Cathepsin L2, at Cathepsin S, on Cathepsin F and at Dipeptidyl peptidase 1 was above 100 µM in each case. The IC50 at Cathepsin B and at Procathepsin L was above 100 µM each time. Moreover, the result (on Trypsin (Homo sapiens); in [1]) was inactive.

`Cc1cccc(O[C@H]2CCN3C[C@@H]2OC3=O)c1C` (racemic): the IC50 is 2.44 µM on Cathepsin K; above 30 µM at Pro-cathepsin H; 3.32 µM on Cathepsin L2; 0.473 µM at Cathepsin S; 5.91 µM on Cathepsin F; 1.73 µM at Dipeptidyl peptidase 1. Further, the values for the half-inhibitory concentration (IC50) at Cathepsin B and at Procathepsin L were 0.046 µM and 1.27 µM, respectively. For the same molecule, the result (on Trypsin (Homo sapiens); in test [1]) was inactive.

With `Cc1cccc(O[C@H]2CCN3C[C@H]2OC3=O)c1C` (relative stereo), the IC50 at Cathepsin K came to 0.038 µM; at Pro-cathepsin H, 2.65 µM; on Cathepsin L2, 0.131 µM; on Cathepsin S, 0.016 µM; at Cathepsin F, 0.331 µM; on Dipeptidyl peptidase 1, 0.018 µM. The values for the IC50 on Cathepsin B and on Procathepsin L were 0.001 µM and 0.022 µM, respectively. Besides, the result (on Trypsin (Homo sapiens); in test [1]) was inactive.

On to `O=C1O[C@@H]2CN1CC[C@@H]2OCc1ccccc1`, for which the IC50 on Cathepsin K is 0.511 µM; on Pro-cathepsin H, above 10 µM; on Cathepsin L2 it was 1.29 µM; at Cathepsin S, 0.174 µM; on Cathepsin F, 3.76 µM; at Dipeptidyl peptidase 1, 0.403 µM. Moreover, the IC50 at Cathepsin B came out at 0.002 µM; on Procathepsin L, 0.263 µM. Besides, the result (at Trypsin (Homo sapiens); in [1]) was inactive.
